Experimental data taken from patent publication US20220000911A1, “COMBINATION OF GOLD COMPLEXES WITH OLAPARIB OR OTHER PARP1/2 INHIBITORS FOR USE IN THE TREATMENT OF CANCER RESISTANT TO SAID PARP1/2 INHIBITORS” (Varsity Pharmaceuticals Limited, priority 2020, published 2022).

Tests used:
Format in all cases: cell-based
[1] = system: olaparib resistant A2780 ovarian cancer cells; assay: CellTiter Glo proliferation inhibition, olaparib resistant A2780 cells, single agents; details: for Mean Inhibition (n = 3): olaparib resistant A2780
Experimental: A2780 ovarian cancer cells (wild-type “WT”) were cultured in RPMI 1640 Medium with 10% Fetal Bovine Serum (FBS).
To obtain cells resistant to olaparib, the cells were cultured in cell culture medium (RPMI 1640 Medium with 10% FBS) supplemented with 20 μM olaparib for one month in order to generate A2780 cells resistant to olaparib (“R”). After a month the cells were continuously cultured in the cell culture medium (RPMI 1640 Medium with 10% FBS) supplemented with 10 μM olaparib prior to use and for up to two months to maintain the resistance.
(§1) The cells were harvested from a flask into cell culture medium (RPMI 1640 Medium with 10% FBS) and then counted. The cells were diluted with culture medium and 40 μL of cell suspension (1000 cells/well) was added into each well of a 384-well cell culture plate. The plate was covered with a lid and left at room temperature without shaking for 30 minutes. The plate was then transferred to an incubator at 37° C. and 5% CO2 and left overnight.
Test compounds were dissolved at a concentration of 30 mM in DMSO to create a stock solution. 45 μL of the stock solution was transferred to a 384 pp-plate. […] The plate was then spun at room temperature at 1,000 RPM for 1 minute. 40 nL of the diluted compound was then transferred from the compound source plate into the cell plate. The cell plate was then covered with a lid and placed in an incubator at 37° C. and 5% CO2 and left for 120 hours. 72 hours after treatment with the compound detection was conducted as discussed below.
(§2) CellTiter Glo® reagents were thawed and equilibrated to room temperature. The cell plate was then removed from the incubator and equilibrated at room temperature for 15 minutes. 30 μL of the CellTiter Glo® reagents were then added into each well (at 1:1 to culture medium). The contents was mixed for 2 minutes on an orbital shaker to induce cell lysis and then the plates were allowed to incubate at room temperature for 30 minutes. Luminescence was then measured on an Envision reader (Perkin Elmer).
The inhibition activity was calculated using the following formula:
(§3) Inhibition (%)=100×(Lumvehicle−Lumsample)/(Lumvehicle−Lumblank),
where Lumvehicle is the luminescence of cells treated with 0.1% DMSO and Lumblank is cells in the culture medium.
The IC50 was calculated by fitting the curve using Xlfit (v5.3.1.3), equation 201: […]

[2] = system: wildtype A2780 ovarian cancer cells; assay: CellTiter Glo proliferation inhibition, wild-type A2780 cells; details: for Mean Inhibition (n = 3): wildtype A2780
Experimental: The A2780 cell line is an ovarian cancer cell line that was established from an ovarian endometroid adenocarcinoma tumour. […] It is commonly used as a model to observe the effects of, and test the potency of various chemicals, methods of delivery and treatments for ovarian cancer. […] The cells were diluted with culture medium and 40 μL of cell suspension (1000 cells/well) was added into each well of a 384-well cell culture plate. The plate was covered with a lid and left at room temperature without shaking for 30 minutes. The plate was then transferred to an incubator at 37° C. and 5% CO2 and left overnight. Test compounds were dissolved at a concentration of 30 mM in DMSO to create a stock solution. 45 μL of the stock solution was transferred to a 384 pp-plate. […] The plate was then spun at room temperature at 1,000 RPM for 1 minute. 40 nL of the diluted compound was then transferred from the compound source plate into the cell plate. The cell plate was then covered with a lid and placed in an incubator at 37° C. and 5% CO2 and left for 120 hours. 72 hours after treatment with the compound detection was conducted as discussed below. CellTiter Glo® reagents were thawed and equilibrated to room temperature. The cell plate was then removed from the incubator and equilibrated at room temperature for 15 minutes. 30 μL of the CellTiter Glo® reagents were then added into each well (at 1:1 to culture medium). The contents was mixed for 2 minutes on an orbital shaker to induce cell lysis and then the plates were allowed to incubate at room temperature for 30 minutes. Luminescence was then measured on an Envision reader (Perkin Elmer). The inhibition activity was calculated using the following formula: […]

[3] = system: olaparib resistant HCC1937 triple negative breast cancer cells; assay: Proliferation inhibition of olaparib resistant HCC1937 cells, single agents
Experimental: as §1
Test compounds were dissolved at a concentration of 30 mM in DMSO to create a stock solution. 45 μL of the stock solution was transferred to a 384 pp-plate. A 3-fold, 10-point dilution was performed by transferring 15 μL of the compound solution into 30 μL DMSO by using TECAN (EVO200) liquid handler. The plate was then spun at room temperature at 1,000 RPM for 1 minute. 40 nL of the diluted compound was then transferred from the compound source plate into the cell plate. The cell plate was then covered with a lid and placed in an incubator at 37° C. and 5% CO2 and left for 120 hours. 72 hours after treatment with the compound detection was conducted as discussed below.
as §2, §3
The methods were as described in examples 1 and 2, except the HCC1937 cell line was used.
The HCC1937 cell line was established from a primary breast carcinoma from a patient with a germ-line BRCA1 mutation. It is an example of a triple-negative breast cancer (TNBC) cell line. Breast cancer patients routinely have the expression of estrogen receptor (ER), progesterone receptor (PR), and amplification of HER-2/Neu evaluated. […] The latter group is referred to as triple-negative breast cancer based on the lack of these three molecular markers. TNBC represents approximately 10-15% of all breast cancers and patients with TNBC have a poor outcome compared to the other subtypes of breast cancer.

[4] = concentration range 0.06 nM to 30,000 nM

Structure (SMILES): CC(=O)OC[C@H]1O[C@@H]([S-])[C@H](OC(C)=O)[C@@H](OC(C)=O)[C@@H]1OC(C)=O.CCP(CC)CC.[Au+] [Auranofin, auranofin]
- Maximum inhibition observed in olaparib resistant A2780 cells [1, 4]: 100%
- Mean Inhibition (n = 3) ([1]; test conc. 1.52 nM): 4.64%
- Mean Inhibition (n = 3) ([1]; test conc. 4.57 nM): 3.42%
- Mean Inhibition (n = 3) ([1]; test conc. 13.72 nM): 12.34%
- Mean Inhibition (n = 3) ([1]; test conc. 41.15 nM): 41.07%
- Mean Inhibition (n = 3) ([1]; test conc. 123.46 nM): 78.31%
- Mean Inhibition (n = 3) ([1]; test conc. 370.37 nM): 96.38%
- Mean Inhibition (n = 3) ([1]; test conc. 1,111.11 nM): 96.82%
- Mean Inhibition (n = 3) ([1]; test conc. 3,333.33 nM): 100.13%
- Mean Inhibition (n = 3) ([1]; test conc. 10,000 nM): 100.19%
- Mean Inhibition (n = 3) ([1]; test conc. 30,000 nM): 100.17%
- IC50 ([1]; olaparib resistant A2780 cells): 55 nM
- Maximum inhibition observed in wild-type A2780 cells [2, 4]: 100%
- IC50 ([2]; wild-type A2780 cells): 101 nM
- Mean Inhibition (n = 3) ([2]; test conc. 1.52 nM): −1.87%
- Mean Inhibition (n = 3) ([2]; test conc. 4.57 nM): −0.74%
- Mean Inhibition (n = 3) ([2]; test conc. 13.72 nM): 2.52%
- Mean Inhibition (n = 3) ([2]; test conc. 41.15 nM): 21.08%
- Mean Inhibition (n = 3) ([2]; test conc. 123.46 nM): 56.32%
- Mean Inhibition (n = 3) ([2]; test conc. 370.37 nM): 86.25%
- Mean Inhibition (n = 3) ([2]; test conc. 1,111.11 nM): 98.39%
- Mean Inhibition (n = 3) ([2]; test conc. 3,333.33 nM): 100.15%
- Mean Inhibition (n = 3) ([2]; test conc. 10,000 nM): 100.17%
- Mean Inhibition (n = 3) ([2]; test conc. 30,000 nM): 100.20%
- Mean Inhibition (n = 3) ([3]; test conc. 1.52 nM): −8.11%
- Mean Inhibition (n = 3) ([3]; test conc. 4.57 nM): 0.54%
- Mean Inhibition (n = 3) ([3]; test conc. 13.72 nM): −0.91%
- Mean Inhibition (n = 3) ([3]; test conc. 41.15 nM): 0.49%
- Mean Inhibition (n = 3) ([3]; test conc. 123.46 nM): 0.54%
- Mean Inhibition (n = 3) ([3]; test conc. 370.37 nM): 13.11%
- Mean Inhibition (n = 3) ([3]; test conc. 1,111.11 nM): 59.64%
- Mean Inhibition (n = 3) ([3]; test conc. 3,333.33 nM): 98.95%
- Mean Inhibition (n = 3) ([3]; test conc. 10,000 nM): 100.03%
- Mean Inhibition (n = 3) ([3]; test conc. 30,000 nM): 99.97%
